According to patent EP1388586A2, “Identification of broadly reactive DR restricted epitopes” (priority 1998, dated 1999):
Like-named read-outs stand apart in the source and are kept apart here. Square brackets hold non-standard residues; d marks the D form. Ends that are not written are not given here. Peptide text beside a SMILES is read from it.

Tests used:
[1] = target: T1, DRB1*0101 (DR1) (Homo sapiens, UniProt P01903+P01911, A100R/D57E/F55L/F60I/F76Y/I96L/L162R/M171V/P40L/Q125E/R42F/V115G/Y59C); assay: Class II peptide-binding assay, DR1;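 note: competition assay: unlabeled test peptides inhibit binding of a radiolabeled probe peptide to purified DR, with half-maximal inhibition taken as an approximate dissociation constant Kd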
T1 construct: used as sources of human HLA class II molecules; endogenous in cells; host or cells: LG2 (EBV-transformed homozygous B cell line)
Procedure: (§1) Class II peptide-binding assays. […] These assays were chosen as to be representative of the most common DR alleles.
(§2) Radiolabeled peptides were iodinated using the chloramine-T method. […] In appropriate stoichiometric conditions, the IC50 of an unlabeled test peptide to the purified DR is a reasonable approximation of the affinity of interaction (Kd). Peptides were tested in two to four completely independent experiments. […] Final detergent concentration in the incubation mixture was 0.05% Nonidet P-40. Assays were performed at pH 7.0 with the exception of DR3, which was performed at pH 4.5, and DRw53, which was performed at pH 5.0.
(§3) All subsequent inhibition and direct binding assays were the performed using these class II concentrations.

[2] = target: T2, DRB5*0101 (DR2w2a) (Homo sapiens, UniProt P01903+Q30154); assay: Class II peptide-binding assay, DR2w2a (DR2w2B2);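 note: competitive binding assay: unlabeled peptide inhibiting binding of a radiolabeled probe peptide to purified DR molecules at pH 7.0, IC50 approximating Kd, lower means stronger binding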
T2 construct: used as sources of human HLA class II molecules; endogenous in cells; host or cells: GM3107 (EBV-transformed homozygous B cell line)

[3] = target: T3, DRB1*0401 (DR4w4) (Homo sapiens, UniProt P01903+P01911, A100K/A169T/F76Y/I96L/K127E/L162R/M171V/N62H/P40V/Q125Y/R42H/S133A/S149N/S66Y/V115G/V209L/W38E); assay: Class II peptide-binding assay, DR4w4;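 note: unlabeled test peptides compete with a radiolabeled probe peptide for binding to affinity-purified HLA-DR, with DR amount titrated to capture a small fraction of label, IC50 approximating Kd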
T3 construct: used as sources of human HLA class II molecules; endogenous in cells; host or cells: PREISS (EBV-transformed homozygous B cell line)
Procedure: as §1, §2, §3

[4] = target: T4, DRB10404 (DR4w14) (Homo sapiens, UniProt P01903+P01911, A100R/A169T/F76Y/I96L/K127E/L162R/M171V/N62H/P40V/Q125Y/R42H/S133A/S149N/S66Y/V209L/W38E); assay: Class II peptide-binding assay, DR4w14;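 note: unlabeled peptides compete with a radiolabeled probe for binding to affinity-purified HLA-DR, neutral pH, class II amount titrated to bind a small fraction of label, IC50 approximates Kd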
T4 construct: used as sources of human HLA class II molecules; endogenous in cells; host or cells: BIN40 (EBV-transformed homozygous B cell line)

[5] = target: T5, DRB1*1101 (DR5w11) (Homo sapiens, UniProt P01903+P01911, A100R/A169T/A87E/I96F/K41T/L162R/M171V/P40S/Q125H/Q178H/Q39Y/Q99D/R42S/S66Y/T262R/V115G/W38E); assay: Class II peptide-binding assay, DR5w11; conditions: read-out: DR5w11 nM (In IC50 Format); purified HLA DR5w11;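 note: competition by unlabeled test peptide against iodinated probe peptide binding to affinity-purified HLA-DR, class II amount titrated beforehand, half-maximal inhibitory concentration read as approximate Kd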
T5 construct: used as sources of human HLA class II molecules; endogenous in cells; host or cells: SWEIG (EBV-transformed homozygous B cell line)
T5 sequence (P01903 26-254, other chains not shown): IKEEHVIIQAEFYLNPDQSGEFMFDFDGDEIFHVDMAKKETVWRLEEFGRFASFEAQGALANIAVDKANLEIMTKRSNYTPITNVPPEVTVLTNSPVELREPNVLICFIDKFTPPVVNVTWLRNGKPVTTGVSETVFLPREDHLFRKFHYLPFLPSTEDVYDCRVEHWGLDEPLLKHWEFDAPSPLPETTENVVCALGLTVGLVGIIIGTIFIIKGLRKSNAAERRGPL

[6] = target: DRB1*0701 (DR7) (Homo sapiens, UniProt P01903+P01911, A100R/A102G/A103Q/D57E/D86V/E43K/F76Y/K127E/L162R/M171V/P40G/Q125H/Q99D/R33Q/R42Y/R54Q/S133A/S66F/T210M/V115G/Y107V/Y59L/Y89S); assay: Class II peptide-binding assay, DR7;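 note: unlabeled peptides compete with an iodinated probe peptide for binding to affinity-purified HLA-DR at neutral pH, DR amount titered to bind a small tracer fraction, IC50 approximating Kd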
[7] = read-out: DR1 nM (In IC50 Format), purified HLA DR1
[8] = read-out: DR2w2B2 nM (In IC50 Format), purified HLA DR2w2β2
[9] = read-out: DR4w4 nM (In IC50 Format), purified HLA DR4w4
[10] = read-out: DR4w14 nM (In IC50 Format), purified HLA DR4w14
[11] = read-out: DR7 nM (In IC50 Format), purified HLA DR7

| Compound | IC50 [1, 7] | IC50 [2, 8] | IC50 [3, 9] | IC50 [4, 10] | IC50 [5] | IC50 [6, 11] | IC50 ([1]; read-out: In IC50 Format DR1, Table VIII) | IC50 ([2]; read-out: In IC50 Format DR2w2β2, Table VIII) | IC50 ([3]; read-out: In IC50 Format DR4w4, Table VIII) | IC50 ([4]; read-out: In IC50 Format DR4w14, Table VIII) | IC50 ([6]; read-out: In IC50 Format DR7, Table VIII) | IC50 ([6]; read-out: In IC50 Format DR7 nM, Table VIII, page 2) |
| --- | --- | --- | --- | --- | --- | --- | --- | --- | --- | --- | --- | --- |
| YARAQSQTTLKAKT-NH2 [Peptide 717.29] | 556 nM | 1820 nM | 30 nM | 41.7 nM | 20000 nM | 3570 nM | – | – | – | – | – | – |
| KSNTATSATQRLANSLVH [Peptide 735.01] | 313 nM | – | 441 nM | 352 nM | 1330 nM | 12500 nM | – | – | – | – | – | – |
| YAAFQSQTTLKAKT-NH2 [Peptide 717.30] | 8.7 nM | 105 nM | 7.6 nM | 7.5 nM | 22.2 nM | 4170 nM | – | – | – | – | – | – |
| YARFQSQTTLEAKT-NH2 [Peptide 717.22] | 7.9 nM | 870 nM | 11.8 nM | – | 29.4 nM | 2780 nM | – | – | – | – | – | – |
| YARYQSQTTLKAKT-NH2 [Peptide 717.42] | 7.8 nM | 364 nM | 3.1 nM | 66.7 nM | 14.3 nM | – | – | – | – | – | – | – |
| INSWVESQTNGIIR [Peptide 608.02] | – | – | – | – | – | – | 556 nM | > 10000 nM | 375 nM | 16700 nM | 14.7 nM | – |
| CC(C)C[C@H](NC(=O)[C@@H](NC(=O)[C@@H](NC(=O)[C@H](CCC(N)=O)NC(=O)[C@H](CCCCN)NC(=O)[C@H](CC(=O)O)NC(=O)[C@H](Cc1ccccc1)NC(=O)[C@@H](CCCNC(=N)N)NC(=O)[C@H](C)NC(=O)[C@H](N)Cc1ccc(O)cc1)[C@@H](C)O)[C@@H](C)O)C(=O)N[C@@H](CCCCN)C(=O)N[C@@H](C)C(=O)N[C@@H](C)C(=O)N[C@H](C)C(=O)O [Peptide 781.19] (H-[dY]A[dR]FDKQTTLKAA[dA]-OH) | 60.2 nM | 3330 nM | 8.1 nM | 96.6 nM | 47.5 nM | – | – | – | – | – | – | – |
| CC[C@H](C)[C@H](NC(=O)[C@@H](NC(=O)[C@H](CC(C)C)NC(=O)[C@@H](NC(=O)[C@@H]1CCCN1C(=O)[C@H](CCCNC(=N)N)NC(=O)[C@@H](N)CCCNC(=N)N)[C@@H](C)CC)[C@@H](C)O)C(=O)N[C@H](C(=O)N[C@H](C(=O)N[C@@H](CC(C)C)C(=O)N[C@@H](CCC(=O)O)C(=O)N[C@@H](CC(=O)O)C(=O)N[C@@H](CO)C(=O)N[C@@H](CO)C(=O)NCC(=O)O)[C@@H](C)O)[C@@H](C)CC [Peptide 39.0310] | – | – | – | – | – | – | – | – | – | – | – | 10900 nM |
| YARFQSQTTLKAET-NH2 [Peptide 717.26] | 35.7 nM | – | 18 nM | 20 nM | – | 4170 nM | – | – | – | – | – | – |
| ASQKRPSQRSKYLATAST [Peptide 765.011] | 313 nM | 2500 nM | 321 nM | – | 4440 nM | 961 nM | – | – | – | – | – | – |
| LMAMGITDVFSSSANLSGI [Peptide 705.08] | 417 nM | – | 14.1 nM | – | 2500 nM | 403 nM | – | – | – | – | – | – |
